{
  "source": "paper PMC12529164",
  "about": "“Design, Synthesis, Structure–Activity Relationships, and Preliminary Anticancer Properties of Menthol-Modified Coumarin Esters and 3,4-Dihydrocoumarin Derivatives” (ACS Omega, 2025)",
  "key": {"[1]": {"system": "tested cancer cell lines (SW480, SW620, PC3, MDA-MB-231)", "assay": "MTT assay, mean over tested cancer cell lines", "type": "cell-based", "conditions": "Homo sapiens, mean of the four cancer cell lines", "procedure": "They were added to 96-well plates with seeded normal and cancer cells (1 × 10^4 cells per well) and incubated for 72 h. MTT analysis was performed according to a previous study. […]"}, "Danio rerio larvae": {"system": "Danio rerio larvae", "assay": "In vivo toxicity, maximum tolerated concentration", "conditions": "zebrafish larvae, immersion from 96 hpf for 18 h (120 hpf), 5-150 μM tested", "procedure": "Zebrafish (Danio rerio, strain AB) was maintained at the Experimental Medicine Center, Medical University of Lublin, Poland. Embryos and larvae up to 120 h postfertilization (hpf) were kept under generally accepted environmental conditions, i.e., in incubators at 28.5 °C, with 14/10 h light/dark cycles. The embryos of the Zebrafish were harvested after the natural reproduction process.\nThree compounds showing low IC50 values determined on cancer lines in in vitro tests (2b, 4a) and compound 1a characterized by low cytotoxicity were used for in vivo tests. We also conducted research for coumarin. These compounds were dissolved in dimethyl sulfoxide (DMSO) (Sigma-Aldrich, St. Louis, MO, USA) and diluted in the zebrafish medium (pH 7.1–7.3; 5.0 mM NaCl, 0.17 mM KCl, 0.33 mM CaCl2, 0.33 mM MgSO4) to achieve a final DMSO concentration of 1% w/v. Twenty-four hpf zebrafish embryos were investigated under a light microscope, and […] fertilized embryos (n = 60) were selected and transferred into 48-well plates (5 embryos per well). Larvae were incubated in 1 mL of the zebrafish medium for up to 3 days after fertilization.\nOn the fourth day postfertilization (96 hpf), the larvae (10 individuals per group) were incubated in solutions of coumarin or its three derivatives (1a, 2b, 4a) at selected concentrations (5, 10, 25, 50, 75, 100, 150 μM), along with control solutions: negative control (zebrafish medium) and solvent control (1% DMSO in zebrafish medium). The maximum tolerated concentration (MTC) was calculated to assess the toxicity of the compounds and extracts. […] Larvae were individually inspected under a microscope for signs of acute locomotor dysfunction, including a weak reaction to light tail stimulation with a fine needle, disrupted posture, body deformities, protruding eyes, slowed or absent heartbeat, and mortality."}, "SW620 [2]": {"system": "SW620", "assay": "Trypan blue assay", "type": "cell-based, human", "conditions": "SW620, compound at IC50, 72 h", "procedure": "(§1) The total cell count was assessed by trypan blue exclusion dye assay using automated cell counter (Countess Invitrogen). Untreated cells were used as the control. Each experiment was repeated 5 times."}, "HaCaT [3]": {"system": "HaCaT", "assay": "Trypan blue assay", "type": "cell-based, human", "conditions": "compound at IC50, 72 h", "procedure": "as §1"}, "Trypan blue assay": {"assay": "Trypan blue assay", "type": "cell-based, human", "conditions": "human, HaCaT cells, compound at IC50, 72 h, mean", "procedure": "as §1"}, "SW480 [4]": {"system": "SW480", "assay": "Trypan blue assay", "type": "cell-based, human", "conditions": "SW480, compound at IC50, 72 h", "procedure": "as §1"}, "HaCaT [5]": {"system": "HaCaT", "assay": "MTT cytotoxicity assay, normal cells", "type": "cell-based", "conditions": "HaCaT, 72 h, human immortal keratinocytes (normal cells)", "procedure": "(§2) The human primary (SW480) and metastatic (SW620) colon cancer, metastatic prostate cancer (PC3), breast adenocarcinoma (MDA-MB-231) and human immortal keratinocyte (HaCaT) cell lines were recruited from the American Type Culture Collection (ATCC). The cells were cultured in the recommended medium according to protocols (RPMI 1640 for PC3, MEM for SW480 and SW620, as well as DMEM for MDA-MB-231 and HaCaT cells) with addition of 10% FBS, penicillin (100 U/mL), and streptomycin (100 μg/mL) and cultured in 37 °C/5% CO2 in a humidified incubator. Then, the cells were passaged at a confluence of 80–90% by a treatment with 0.25% trypsin (Gibco Life Technologies) and used for studies.\n(§3) They were added to 96-well plates with seeded normal and cancer cells (1 × 10^4 cells per well) and incubated for 72 h. MTT analysis was performed according to a previous study."}, "SW620 [6]": {"system": "SW620", "assay": "MTT cytotoxicity assay", "type": "cell-based, human", "procedure": "as §2, §3"}, "MDA-MB-231": {"system": "MDA-MB-231", "assay": "MTT cytotoxicity assay", "type": "cell-based, human", "procedure": "as §2, §3"}, "PC3": {"system": "PC3", "assay": "MTT cytotoxicity assay", "type": "cell-based, human", "procedure": "as §2, §3"}, "SW480 [7]": {"system": "SW480", "assay": "MTT cytotoxicity assay", "type": "cell-based, human", "procedure": "as §2, §3"}, "IL-6 in SW480 cells": {"system": "IL-6 in SW480 cells", "assay": "Interleukin-6 ELISA", "type": "cell-based, human", "conditions": "SW480, compound at IC50, 72 h", "procedure": "(§4) The concentration of Interleukin-6 (IL-6) was measured in cell culture supernatant using Interleukin IL-6 High Sensitivity ELISA kit (Diaclon SAS, Besancon Cedex, France). Cells (1 × 10^5 cells/well) were seeded in 12-well plates with medium for 24 h. […] After this incubation, the supernatants were collected and 100 μL of supernatant samples, control solutions and blank were added to precoated ELISA plate with the preceding plotting of the standard curve. Then 50 μL of diluted biotinylated antihuman interleukin-6 antibody was added and incubated at room temperature for 3 h. Afterward, the plate was washed three times and 100 μL streptavidin-HRP solution was added to each well. After 30 min incubation, the plate was washed again three times and 100 μL of tetramethylbenzidine (TMB) solution was added to each well. The plate was incubated for 15 min in the dark. The reaction was stopped by adding 100 μL of H2SO4 solution. The absorbance was estimated using a spectrophotometer at 450 nm (Microplate Spectrophotometer Thermo Scientific Multiskan GO)."}, "IL-6 in PC3 cells": {"system": "IL-6 in PC3 cells", "assay": "Interleukin-6 ELISA", "type": "cell-based, human", "conditions": "PC3, compound at IC50, 72 h", "procedure": "as §4"}, "IL-6 in HaCaT cells": {"system": "IL-6 in HaCaT cells", "assay": "Interleukin-6 ELISA", "type": "cell-based, human", "conditions": "compound at IC50, 72 h", "procedure": "as §4"}, "IL-6 in SW620 cells": {"system": "IL-6 in SW620 cells", "assay": "Interleukin-6 ELISA", "type": "cell-based, human", "conditions": "SW620, compound at IC50, 72 h", "procedure": "as §4"}, "[8]": {"conditions": "SI = IC50 for normal cell line (HaCaT)/IC50 cancer cell line"}},
  "note": "Read-outs that look alike come from different tables or passages of the source.",
  "data": [
    {"smiles": "CC(C)[C@@H]1CC[C@@H](C)C[C@H]1OC(=O)C1C(=O)Oc2ccccc2C1P(=O)(c1ccccc1)c1ccccc1", "note": "(mixture of isomers) [Compound 4a, (1R,2S,5R)-2-Isopropyl-5-methylcyclohexyl-4-(diphenylphosphoryl)-2-oxochromane-3-carboxylate]", "values": [
      {"measurement": "IC50", "setting": "[1]; Table S7, >100 entered as 100, read-out: mean anticancer IC50", "value": 11.6, "unit": "µM"},
      {"measurement": "IC50", "setting": "[1]; read-out: average IC50 against tested cancer cell lines", "value": 11.6, "unit": "µM"},
      {"measurement": "maximum tolerated concentration (MTC)", "setting": "Danio rerio larvae", "value": 75, "unit": "µM"},
      {"measurement": "cell number", "setting": "SW620 [2]; mean", "value": "1.86 x106"},
      {"measurement": "viability (%)", "setting": "SW620 [2]; mean", "value": 98, "unit": "%"},
      {"measurement": "reduction of number of live cells", "setting": "SW620 [2]; vs control", "value": 47.6, "unit": "%"},
      {"measurement": "cell number", "setting": "HaCaT [3]; mean", "value": "4.26 x106"},
      {"measurement": "reduction of number of cells", "setting": "HaCaT [3]; vs control", "value": 31.9, "unit": "%"},
      {"measurement": "viability at 72 h", "setting": "Trypan blue assay", "value": 96, "unit": "%"},
      {"measurement": "cell number", "setting": "SW480 [4]; mean", "value": "0.72 x106"},
      {"measurement": "viability (%)", "setting": "SW480 [4]; mean", "value": 93.66, "unit": "%"},
      {"measurement": "reduction of number of live cells", "setting": "SW480 [4]; vs control", "value": 79.9, "unit": "%"},
      {"measurement": "IC50", "setting": "HaCaT [5]", "value": "15.1 ± 2.76", "unit": "µM"},
      {"measurement": "SI SW620", "setting": "SW620 [6]; [8]", "value": 2.21},
      {"measurement": "IC50", "setting": "SW620 [6]; SW-620, MTT, 72 h, human metastatic colon cancer", "value": "6.8 ± 0.55", "unit": "µM"},
      {"measurement": "IC50", "setting": "MDA-MB-231; MDA-MB-231, MTT, 72 h, human breast adenocarcinoma", "value": "25.3 ± 4.59", "unit": "µM"},
      {"measurement": "SI MDA-MB-231", "setting": "MDA-MB-231; [8]", "value": 0.60},
      {"measurement": "IC50", "setting": "PC3; PC-3, MTT, 72 h, human metastatic prostate cancer", "value": "9.8 ± 2.02", "unit": "µM"},
      {"measurement": "SI PC3", "setting": "PC3; [8]", "value": 1.53},
      {"measurement": "SI SW480", "setting": "SW480 [7]; [8]", "value": 3.28},
      {"measurement": "IC50", "setting": "SW480 [7]; SW480, MTT, 72 h, human primary colon cancer", "value": "4.6 ± 1.01", "unit": "µM"},
      {"measurement": "IL-6 concentration", "setting": "IL-6 in SW480 cells; ELISA", "value": "0.9 ± 0.33", "unit": "pg/mL"},
      {"measurement": "reduction of IL-6 level", "setting": "IL-6 in SW480 cells; vs control", "value": 77.6, "unit": "%"},
      {"measurement": "IL-6 concentration", "setting": "IL-6 in PC3 cells; ELISA", "value": "0.6 ± 0.09", "unit": "pg/mL"},
      {"measurement": "reduction of IL-6 level", "setting": "IL-6 in PC3 cells; vs control", "value": 87.2, "unit": "%"},
      {"measurement": "IL-6 concentration", "setting": "IL-6 in HaCaT cells; ELISA", "value": "7.5 ± 1.13", "unit": "pg/mL"},
      {"measurement": "reduction of IL-6 concentration", "setting": "IL-6 in HaCaT cells; vs control", "value": 26.5, "unit": "%"},
      {"measurement": "IL-6 concentration", "setting": "IL-6 in SW620 cells; ELISA", "value": "0.9 ± 0.27", "unit": "pg/mL"},
      {"measurement": "reduction of IL-6 level", "setting": "IL-6 in SW620 cells; vs control", "value": 69.1, "unit": "%"}
    ]}
  ]
}
